Holding throughout (experiment): ≥ marks a high value that may be exact or a test limit, other limits are often not marked, values filed in µg/mL are converted to µM
Experiment [1] has as its system Batrachochytrium dendrobatidis JEL-197.
In experiment [2] the test system is Staphylococcus aureus ATCC 6538.
For experiment [3], the system named is Escherichia coli ATCC BAA-2340.
The subject of experiment [4] is Staphylococcus aureus B038 V1S1A.
In experiment [5] the test system is Candida albicans ATCC 90028.
Experiment [6] relates to Candida albicans ATCC 10231.
For experiment [7], the system named is Staphylococcus aureus ATCC 12493.
Experiment [8] relates to Staphylococcus aureus ATCC 43300.
Experiment [9] has as its system Pseudomonas aeruginosa ATCC 9027.
Experiment [10] concerns Staphylococcus aureus.
For experiment [11], the system named is Klebsiella pneumoniae ATCC BAA-1705.
Experiment [12] concerns Enterococcus faecalis NCTC 12697.
For experiment [13], the system named is Klebsiella pneumoniae ATCC 43816.

Molecules are shown by their SMILES. In brackets after ≈: the same amount, converted by molar mass. Several values for one entry are separate records, joined by “and”; a condition that tells them apart may be missing. Identical values can stand only once.

Experimental findings from DBAASP are described below.

As usually defined, the MIC is the lowest concentration found to suppress growth. A lower MIC goes with greater potency. `CC[C@H](C)[C@H](NC(=O)CN)C(=O)N[C@@H](CC(C)C)C(=O)N[C@@H](CC(=O)O)C(=O)N[C@@H](CO)C(=O)N[C@@H](Cc1ccccc1)C(=O)N[C@@H](CCCCN)C(=O)N[C@@H](CC(=O)O)C(=O)N[C@H](C(=O)N[C@@H](C)C(=O)N[C@@H](CCCCN)C(=O)NCC(=O)N[C@H](C(=O)N[C@@H](C)C(=O)N[C@H](C(=O)N[C@@H](Cc1cnc[nH]1)C(=O)N[C@@H](CC(C)C)C(=O)N[C@@H](CC(C)C)C(=O)N[C@@H](CC(N)=O)C(=O)N[C@@H](CCSC)C(=O)N[C@@H](C)C(=O)N[C@@H](CCCCN)C(=O)N[C@H]1CSSC[C@@H](C(=O)O)NC(=O)CNC(=O)[C@H]([C@@H](C)O)NC(=O)[C@H](CCSC)NC(=O)[C@H](CCCCN)NC1=O)[C@@H](C)O)C(C)C)C(C)C` [GILDSFKDVAKGVATHLLNMAKCKMTGC]: the minimal inhibitory concentration (MIC) in experiment [1] was not below 100 µM.
In the case of `CC[C@H](C)[C@H](NC(=O)[C@H](CCCCN)NC(=O)[C@@H](NC(=O)[C@H](CO)NC(=O)[C@H](CC(N)=O)NC(=O)[C@H](Cc1c[nH]c2ccccc12)NC(=O)[C@H](CC(C)C)NC(=O)CN)[C@@H](C)CC)C(=O)N[C@@H](C)C(=O)NCC(=O)N[C@@H](CCCCN)C(=O)N[C@@H](CCCCN)C(=O)N[C@@H](CC(C)C)C(=O)N[C@@H](Cc1ccccc1)C(=O)N[C@H](C(=O)N[C@@H](CC(N)=O)C(=O)N[C@H](C(=O)N[C@@H](CC(C)C)C(=O)N[C@@H](CC(=O)O)C(=O)N[C@@H](CCCCN)C(=O)N[C@H](C(=O)N[C@@H](CCCN=C(N)N)C(=O)N[C@H]1CSSC[C@@H](C(=O)O)NC(=O)CNC(=O)CNC(=O)[C@H](C)NC(=O)[C@H](C(C)C)NC(=O)[C@H](CCCCN)NC1=O)[C@@H](C)CC)C(C)C)C(C)C` [GLWNSIKIAGKKLFVNVLDKIRCKVAGGC], the MIC was 1.6 µM and 4 µM in experiment [2]; 2 µM (≈ 6.26 µg/mL) in [3]; 2 µM (≈ 6.26 µg/mL) in experiment [4]; not below 100 µM in experiment [5]; 128 µM (≈ 401 µg/mL) in [6]; 8 µM (≈ 25 µg/mL) in [7]. The MIC worked out at 12.5 µM (≈ 39.1 µg/mL) in experiment [8]; 16 µM (≈ 50.1 µg/mL) in experiment [9]; 4 µM (≈ 12.5 µg/mL) in [10]; 4 µM (≈ 12.5 µg/mL) in experiment [11]; 16 µM (≈ 50.1 µg/mL) in experiment [12]; 8 µM (≈ 25 µg/mL) in experiment [13].
